Read-outs that look alike come from different tables or passages of the source.
What was measured:
β3Gal-T5 [1] = biological target: T1, β3Gal-T5 (Homo sapiens, UniProt Q9Y2C3, M85T); assay: Galactosyltransferase assay, partially purified secreted recombinant β3Gal-T5, saccharide acceptors; type: biochemical; settings: for β3Gal-T5 activity, substrate concentration 1 mM: acceptor 1 mM; for β3Gal-T5 activity, substrate concentration 5 mM: acceptor 5 mM; for donor substrate utilisation by β3Gal-T5: with the acceptor substrates tested (data not shown)
T1 construct: designed to exclude the hydrophobic transmembrane segment and to encode amino acid residues 25-310; secretion signal of vector pAcGP67B (gp67); made in house; host or cells: baculovirus; Sf9 cells (media) and High Five cells (serum-free medium, partially purified)
T1 sequence (Q9Y2C3 25-310 M85T): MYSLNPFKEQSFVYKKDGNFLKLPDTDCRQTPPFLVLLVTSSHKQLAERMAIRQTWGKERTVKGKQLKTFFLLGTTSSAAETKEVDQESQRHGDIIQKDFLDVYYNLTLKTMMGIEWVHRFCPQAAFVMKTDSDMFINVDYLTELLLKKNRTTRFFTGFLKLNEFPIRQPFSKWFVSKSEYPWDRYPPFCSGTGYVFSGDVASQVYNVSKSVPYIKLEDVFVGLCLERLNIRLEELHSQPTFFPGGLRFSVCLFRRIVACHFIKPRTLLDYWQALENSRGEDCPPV
Excerpt: PCR product was cloned into the BamHI site of pAcGP67B (Pharmingen). […] This PCR product was cloned into the BamHI site of pVL1193 (Pharmingen). Both soluble and full length constructs were fully sequenced to confirm fidelity. Plasmids […]5-full were co-transfected with Baculo-GoldTM DNA (Pharmingen) as described previously (Bennett, […]. and Clausen, H. cDNA cloning and expression of a novel human UDP-N-acetyl-alpha-D-galactosamine. Polypeptide N-acetyl-galactosaminyl-transferase, GalNAc-T3. J. Biol. Chem. 271:17006-17012, 1996). Recombinant Baculo-virus were obtained after two successive amplifications in Sf9 cells grown in serum-containing medium, and titers of virus were estimated by titration in 24-well plates with monitoring of enzyme activities. […] J. Biol. […] J. Biol. […] Polypeptide N-acetyl-galactosaminyl-transferase, GalNAc-T3. J. Biol. Chem. 271:17006-17012, 1996). For large scale expression amplified virus was used to infect High FiveTM cells grown in serum-free media (Invitrogen) in upright roller bottles shaking at 140 rpm and 27° C. The kinetic properties were determined with partially purified, secreted forms of the enzymes. Semipurification of enzymes from serum-free medium of infected High-FiveTM cells was performed by sequential Amberlite, DEAE-Sephacel and 5-Sepharose chromatography as described previously ([…]., et al. […] J. Biol. Chem. 272:23503-23514, 1997). Comparisons of enzymes were performed relatively to the activity obtained with βGlcNAc-Bz1 (Tables II and III). Full length enzymes were assayed with 1% Triton CF54 homogenates of washed cells. […] Reaction products were quantified by Dowex-1 chromatography. […] P. and Clausen, H. […] J. Biol. Chem. 273:29295-29305, 1998). The transfer of Gal was evaluated after acid precipitation by filtration through Whatman GF/C glass fibre filters. […] Assays with glycolipid acceptors were conducted as previously described (Holmes, E. H. […] Arch Biochem Biophys 270:630-646, 1989) in reaction mixtures containing 2.5 μmol HEPES buffer, pH 7.2, μmol MnCl2, 100 μg taurodeoxycholate or Triton CF-54, 20 μg acceptor glycolipid, 15 nmol UDP-[^14C]-galactose (13,000 cpm/nmol) and enzyme in a total volume of 100 μl. Conditions for incubation and product isolation were as previously described (Id.).

β3Gal-T5 [2] = biological target: T1, β3Gal-T5; assay: Galactosyltransferase assay with glycolipid acceptors, β3Gal-T5; type: biochemical; settings: for β3Gal-T5 activity with glycolipid acceptor, Triton CF-54: 100 μg Triton CF-54/100 μl; for β3Gal-T5 activity with glycolipid acceptor, Triton CF-54 / β3Gal-T5 activity with glycolipid acceptor, TDOC: 20 μg glycolipid; for β3Gal-T5 activity with glycolipid acceptor, TDOC: 100 μg taurodeoxycholate/100 μl
Procedure: The kinetic properties were determined with partially purified, secreted forms of the enzymes. Semipurification of enzymes from serum-free medium of infected High-Five™ cells was performed by sequential Amberlite, DEAE-Sephacel and 5-Sepharose chromatography as described previously (Wandall, H. H., Hassan, H., Mirgorodskaya, E., et al. Substrate specificities of three. members of the human UDP-N-acetyl-alpha-D-galactosamine:Polypeptide Nacetylgalactosaminyltransferase family, GalNAc-T1, -T2, and -T3. J. Biol. Chem. 272:23503-23514, 1997). Comparisons of enzymes were performed relatively to the activity obtained with βGlcNAc-Bz1 (Tables II and III). Full length enzymes were assayed with 1% Triton CF54 homogenates of washed cells. Enzyme assays were performed in 50 μl total reaction mixtures containing 25 mM Cacodylate (pH 7.5), 10 mM MnCl2, 0.25% Triton X-100, 100 μM UDP-[^14C]-Gal (2,600 cpm/nmol) (Amersham), and varying concentrations of acceptor substrates (Sigma) (see Table I for structures). Reaction products were quantified by Dowex-1 chromatography. […] The transfer of Gal was evaluated after acid precipitation by filtration through Whatman GF/C glass fibre filters. […] Assays with glycolipid acceptors were conducted as previously described (Holmes, E. H. Characterization and membrane organization of beta 1-3- and beta 1-4-galactosyltransferases from human colonic adenocarcinoma cell lines Cob 205 and SW403: basis for preferential synthesis of type 1 chain lacto-series carbohydrate structures. Arch Biochem Biophys 270:630-646, 1989) in reaction mixtures containing 2.5 μmol HEPES buffer, pH 7.2, μmol MnCl2, 100 μg taurodeoxycholate or Triton CF-54, 20 μg acceptor glycolipid, 15 nmol UDP-[^14C]-galactose (13,000 cpm/nmol) and enzyme in a total volume of 100 μl. Conditions for incubation and product isolation were as previously described (Id.).

Compound	β3Gal-T5 activity, substrate concentration 1 mM (β3Gal-T5 [1])	β3Gal-T5 activity, substrate concentration 5 mM (β3Gal-T5 [1])	further results
CC(=O)N[C@H]1[C@@H](OCc2ccccc2)O[C@H](CO)[C@H](O)[C@@H]1O [α-D-GalNAc-Bzl]	0.0 nmol/min/mL	0.0 nmol/min/mL	
CC(=O)N[C@H]1[C@@H](OP(=O)(O)OP(=O)(O)OC[C@H]2O[C@@H](n3ccc(=O)[nH]c3=O)[C@H](O)[C@@H]2O)O[C@H](CO)[C@H](O)[C@@H]1O [UDP-GalNAc]			donor substrate utilisation by β3Gal-T5 (β3Gal-T5 [1]): did not utilize
CC(=O)N[C@H]1[C@@H](OCc2ccccc2)O[C@H](CO)[C@@H](O)[C@@H]1O [α-D-GlcNAc-Bzl]	0.0 nmol/min/mL	0.0 nmol/min/mL	
O=[N+]([O-])c1ccccc1O[C@H]1O[C@H](CO)[C@H](O)[C@H](O)[C@H]1O [α-D-Gal-1-o-Nph]	0.0 nmol/min/mL	0.0 nmol/min/mL	
COC1OC(COC2OC(CO)C(O)C(O)C2NC(C)=O)C(O)C(O)C1O [β-D-GlcNAc-(1–6)-α-D-Man-1-Me]	4.0 nmol/min/mL	13.0 nmol/min/mL	
CC(=O)N[C@H]1[C@H](Oc2ccc3c(C)cc(=O)oc3c2)O[C@H](CO)[C@H](O)[C@@H]1O [β-D-GalNAc-Me-umb]	0.0 nmol/min/mL	0.0 nmol/min/mL	
GalNAcβ1-3Galα1-4Galβ1-4Glcβ1-Cer [Gβ4]			β3Gal-T5 activity with glycolipid acceptor, Triton CF-54 (β3Gal-T5 [2]): 0.09 µmol/h/mg; β3Gal-T5 activity with glycolipid acceptor, TDOC (β3Gal-T5 [2]): 0.6 µmol/h/mg
O=[N+]([O-])c1ccccc1O[C@@H]1O[C@H](CO)[C@H](O)[C@H](O)[C@H]1O [β-D-Gal-1-o-Nph]	0.0 nmol/min/mL	0.0 nmol/min/mL	
Cc1cc(=O)oc2cc(O[C@@H]3O[C@H](CO)[C@@H](O)[C@H](O)[C@H]3O)ccc12 [β-D-Glc-Me-umb]	0.0 nmol/min/mL	0.0 nmol/min/mL	
CC(=O)N[C@@H]1[C@@H](O)[C@H](O)[C@@H](CO)O[C@@H]1O [D-GIcNAc]	0.5 nmol/min/mL	1.2 nmol/min/mL	
CC(=O)N[C@H]1[C@@H](OP(=O)(O)OP(=O)(O)OC[C@H]2O[C@@H](n3ccc(=O)[nH]c3=O)[C@H](O)[C@@H]2O)O[C@H](CO)[C@@H](O)[C@@H]1O [UDPGlcNAc]			donor substrate utilisation by β3Gal-T5 (β3Gal-T5 [1]): did not utilize
CC(=O)N[C@@H]1[C@@H](O)[C@H](O)[C@@H](CO)O[C@H]1Sc1ccc([N+](=O)[O-])cc1 [β-D-GlcNAc-1-thio-p-Nph]	1.1 nmol/min/mL	3.4 nmol/min/mL	
CO[C@@H]1O[C@H](CO)[C@H](O)[C@H](O[C@@H]2O[C@H](CO)[C@@H](O)[C@H](O)[C@H]2NC(C)=O)[C@H]1O [β-D-GlcNAc-(1–3)-β-D-Gal-1-Me]	27.4 nmol/min/mL	87.4 nmol/min/mL	Vmax (β3Gal-T5 [1]; Table V): 972.9 pmol/min; Km (β3Gal-T5 [1]; Table V, read-out: Km): 1800 µM; Km (β3Gal-T5 [1]; acceptor substrate, read-out: apparent Km of β3Gal-T5): 1800 µM
GlcNAcβ1-3Galβ1-4G1cNAcβ1-3Galβ1-4Glcβ1-Cer [nLC5]			activity, fold lower than with Lc3 (β3Gal-T5 [2]): ~3 fold; β3Gal-T5 activity with glycolipid acceptor, Triton CF-54 (β3Gal-T5 [2]): 0.4 µmol/h/mg; β3Gal-T5 activity with glycolipid acceptor, TDOC (β3Gal-T5 [2]): 1.6 µmol/h/mg
GalNAcβ1-4Galβ1-4Glcβ1-Cer [Gg3]			β3Gal-T5 activity with glycolipid acceptor, Triton CF-54 (β3Gal-T5 [2]): 0.005 µmol/h/mg; β3Gal-T5 activity with glycolipid acceptor, TDOC (β3Gal-T5 [2]): 0.09 µmol/h/mg
Cc1cc(=O)oc2cc(O[C@@H]3OC[C@@H](O[C@@H]4O[C@H](CO)[C@H](O)[C@H](O)[C@H]4O)[C@H](O)[C@H]3O)ccc12 [β-Gal-(1–4)-β-D-Xyl-1-Me-umb]	0.0 nmol/min/mL	0.0 nmol/min/mL	
CC(=O)N[C@H]1[C@H](Oc2ccc([N+](=O)[O-])cc2)O[C@H](CO)[C@@H](O)[C@@H]1O [β-D-GlcNAc-1-p-Nph]	2.1 nmol/min/mL	6.9 nmol/min/mL	
Glcβ1-Cer [GlcCer]			β3Gal-T5 activity with glycolipid acceptor, TDOC (β3Gal-T5 [2]): 0.04 µmol/h/mg
CC(=O)NC1C(OC2C(O)OC(CO)C(O)C2O)OC(CO)C(O)C1O [β-D-GlcNAc-(1–2)-α-D-Man]	0.0 nmol/min/mL	3.0 nmol/min/mL	
CC(=O)NC1C(OC2C(OCC3OC(O)C(O)C(OC4OC(CO)C(O)C(O)C4OC4OC(CO)C(O)C(O)C4NC(C)=O)C3O)OC(CO)C(O)C2O)OC(CO)C(O)C1O [β-D-GlcNAc-(1–2)-α-D-Man-(1–3)-[β-D-GlcNAc-(1–2)-α-D-Man-(1–6)-]D-Man]	0.0 nmol/min/mL	0.0 nmol/min/mL	
CC(=O)N[C@H]1[C@H](Oc2ccc3c(C)cc(=O)oc3c2)O[C@H](CO)[C@@H](O)[C@@H]1O [β-D-GlcNAc-Me-umb]	2.6 nmol/min/mL	7.5 nmol/min/mL	
